Patent EP4741383A1, “COMPOUND AND USE THEREOF AS ANTI-CANCER DRUG” (Tyligand Bioscience (Shanghai) Limited, priority 2023, dated 2025)

Molecular target: T1, hERG potassium channel (Homo sapiens, UniProt Q12809)
T1 construct: host or cells: HEK-293
Test: hERG manual patch-clamp assay in HEK-293 cells
Type: cell-based
Details: HEK-293 cells stably expressing the hERG potassium channel, HEK-293 cells stably expressing hERG
Source text: This experiment was a non-GLP trial conducted with reference to GLP guidelines and in accordance with the following technical guidelines: National Medical Products Administration: Technical Guidelines for Non-Clinical Studies of Potential Effects of Drugs on QT Interval Prolongation (2014), and ICH S7B Guidelines for Non-Clinical Evaluation of Potential Drug-Induced Delayed Ventricular Repolarization (QT Interval Prolongation) in Humans (2005).
Sample preparation: the weighed test substance was prepared into a 5 mM or 10 mM stock solution with DMSO, then diluted with DMSO to a 3.33 mM diluent. The stock solution was then diluted with extracellular fluid to prepare a 10 µM working solution, ensuring a DMSO concentration of 0.3%. The solution was sonicated for 20 min. The solubility of the test sample was visually inspected; all concentrations dissolved completely without any visible precipitate.
Preparation of positive control: 3.99 mg Cisapride (positive control) was prepared into a 10 mM stock solution using 807.96 µL DMSO. This stock solution was then successively diluted with DMSO to 1000, 333.33, 33.33, 3.33, and 0.33 µM dilutions. Before testing, 30 µL of each of the last four dilutions was added to 10 mL of extracellular fluid, ensuring a DMSO concentration of 0.3%. The final working solution concentrations of Cisapride were 1000, 100, 10, and 1 nM. Cisapride was visually inspected for solubility; all concentrations dissolved completely without any visible precipitate.
The blank control stock solution (DMSO) should be stored at room temperature. The blank control working solution should be prepared on the same day and stored at room temperature. The test substance and positive control stock solutions should be stored at -20 °C. […]
The hERG activity of the representative compounds of this disclosure was detected using conventional manual patch-clamp techniques in the art (Patch-Clamp Methods and Protocols, 2014, 2nd edition, Humana Press, edited by Marzia Martina and Stefano Taverna).

T1 sequence (Q12809 whole entry): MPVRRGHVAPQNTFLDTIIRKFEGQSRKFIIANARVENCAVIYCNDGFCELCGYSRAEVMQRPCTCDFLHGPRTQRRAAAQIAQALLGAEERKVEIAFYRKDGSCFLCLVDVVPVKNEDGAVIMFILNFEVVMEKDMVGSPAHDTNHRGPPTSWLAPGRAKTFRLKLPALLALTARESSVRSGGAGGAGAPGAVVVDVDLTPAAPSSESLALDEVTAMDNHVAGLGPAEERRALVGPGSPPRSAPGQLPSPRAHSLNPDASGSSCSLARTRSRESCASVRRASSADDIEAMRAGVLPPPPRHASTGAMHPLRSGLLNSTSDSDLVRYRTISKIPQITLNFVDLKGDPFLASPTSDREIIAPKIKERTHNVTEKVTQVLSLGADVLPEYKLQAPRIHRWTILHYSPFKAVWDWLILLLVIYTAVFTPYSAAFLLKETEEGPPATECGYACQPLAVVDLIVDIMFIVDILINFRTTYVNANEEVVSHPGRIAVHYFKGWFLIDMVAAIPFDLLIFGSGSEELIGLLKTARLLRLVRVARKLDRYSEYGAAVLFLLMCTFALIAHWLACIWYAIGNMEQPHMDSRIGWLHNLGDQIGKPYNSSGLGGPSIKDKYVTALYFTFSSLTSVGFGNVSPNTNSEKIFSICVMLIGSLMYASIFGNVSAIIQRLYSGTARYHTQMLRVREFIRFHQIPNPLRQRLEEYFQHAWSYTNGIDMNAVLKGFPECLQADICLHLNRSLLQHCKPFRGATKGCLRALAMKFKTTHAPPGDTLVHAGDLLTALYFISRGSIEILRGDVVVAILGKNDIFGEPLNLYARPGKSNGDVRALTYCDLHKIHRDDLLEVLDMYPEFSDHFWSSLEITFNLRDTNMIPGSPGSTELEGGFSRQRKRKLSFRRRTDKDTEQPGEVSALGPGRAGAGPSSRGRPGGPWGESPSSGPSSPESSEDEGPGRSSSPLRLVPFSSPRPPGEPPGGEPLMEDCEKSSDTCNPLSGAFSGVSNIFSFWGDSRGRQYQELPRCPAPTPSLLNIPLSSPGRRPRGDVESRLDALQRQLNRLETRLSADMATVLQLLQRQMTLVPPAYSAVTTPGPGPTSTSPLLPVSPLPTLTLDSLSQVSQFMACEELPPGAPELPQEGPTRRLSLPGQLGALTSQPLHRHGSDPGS

**Q.** Which inhibition at 10 µM does the source give for O=C(Nc1ccc(-c2cc3cc(F)c(-c4nnn[nH]4)cc3n2C2CCC2)cc1)C(=O)Nc1ccc(N2CCC(CO)CC2)cc1 [Example 23] here?
**A.** -0.72%

**Q.** How did the inhibition at 10 µM turn out when O=C(Nc1ccc(-c2cc3cc(F)c(-c4nnn[nH]4)cc3n2C2CCC2)cc1)C(=O)Nc1ccc(N2CCC3(CCOC3)CC2)cc1 [Example 67] was run?
**A.** 16.9%

**Q.** CC1(n2c(-c3ccc(NC(=O)C(=O)Nc4ccc(N5CCC6(CCOC6)CC5)cc4)cc3)cc3cc(F)c(-c4nnn[nH]4)cc32)CCC1 [Example 68] was tested. Which inhibition at 10 µM did it give?
**A.** 8.79%
